# Literature values as cited in US7662371B2, “Composition for lowering the concentration of intestinal pathogenic peptides” (Neurozym Biotech AS, priority 2001, dated 2010).
# Settings: oral treatment, regressive-onset autism
compound,measurement,value
CN[C@H](CC(C)C)C(=O)N[C@H]1C(=O)N[C@@H](CC(N)=O)C(=O)N[C@H]2C(=O)N[C@H]3C(=O)N[C@H](C(=O)N[C@H](C(=O)O)c4cc(O)cc(O)c4-c4cc3ccc4O)[C@H](O)c3ccc(c(Cl)c3)Oc3cc2cc(c3O[C@@H]2O[C@H](CO)[C@@H](O)[C@H](O)[C@H]2O[C@H]2C[C@](C)(N)[C@H](O)[C@H](C)O2)Oc2ccc(cc2Cl)[C@H]1O [vancomycin],"improvement, number of children",8 of 10
